The values below come from US12662489B2 (Sitryx Therapeutics Limited, priority 2023, dated 2026).

Structures are written as SMILES.

In assay [1] the target is T1, MTHFD1 recombinant human enzyme (Homo sapiens, UniProt P11586).
T1 sequence (P11586 2-291 limits assumed): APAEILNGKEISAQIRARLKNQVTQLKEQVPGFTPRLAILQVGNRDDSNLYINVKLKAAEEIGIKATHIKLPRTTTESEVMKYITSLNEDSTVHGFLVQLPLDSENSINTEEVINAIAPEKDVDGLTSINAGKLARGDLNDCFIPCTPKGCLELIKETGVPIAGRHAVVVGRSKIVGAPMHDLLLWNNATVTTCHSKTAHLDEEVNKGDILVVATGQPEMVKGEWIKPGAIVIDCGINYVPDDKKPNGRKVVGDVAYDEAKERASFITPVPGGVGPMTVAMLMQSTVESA
In words: MTHFD1 inhibition assay (NAD(P)H-Glo luminescence). Conditions: MTHFD1 IC50, recombinant human enzyme 200 nM, NADP, band.

The target of assay [2] is T2, MTHFD2 recombinant human enzyme (Homo sapiens, UniProt P13995).
T2 sequence (P13995 36-350): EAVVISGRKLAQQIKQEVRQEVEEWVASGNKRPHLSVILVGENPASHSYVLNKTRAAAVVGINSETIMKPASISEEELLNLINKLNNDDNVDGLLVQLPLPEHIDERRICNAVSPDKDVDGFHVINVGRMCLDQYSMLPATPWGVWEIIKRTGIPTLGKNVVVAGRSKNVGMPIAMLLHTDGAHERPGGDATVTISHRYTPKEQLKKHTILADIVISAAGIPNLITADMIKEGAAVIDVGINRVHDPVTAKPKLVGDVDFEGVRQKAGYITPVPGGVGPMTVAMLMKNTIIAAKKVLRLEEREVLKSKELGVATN
In words: MTHFD2 inhibition assay (NAD(P)H-Glo luminescence). Conditions: for MTHFD1/MTHFD2 IC50 ratio: selectivity of MTHFD2 inhibition over MTHFD1, band.

The subject of a further assay is human CD4+ T cells. In words: Human CD4+ T-cell proliferation assay (CFSE, CD3/28 beads). Particulars: read-out: Proliferation IC50.

`CCOc1cc(C(=O)N2CCc3c(c(=O)oc4c(C)c(N5CCN(C)[C@@H](COC)C5)cc(C)c34)C2)c(F)cc1C(=O)NS(=O)(=O)N(C1CC1)C1CC1` [Example 216, (R)-N-(N,N-dicyclopropylsulfamoyl)-2-ethoxy-5-fluoro-4-(8-(3-(methoxymethyl)-4-methylpiperazin-1-yl)-7,10-dimethyl-5-oxo-1,3,4,5-tetrahydro-2H-chromeno[3,4-c]pyridine-3-carbonyl)benzamide]: the IC50 in assay [1] was in the range of 100 to 1000 nM; in assay [2], 10 to 100 nM; in the assay with human CD4+ T cells, 10 to 30 nM. Also, the “MTHFD1/MTHFD2 IC50 ratio” value in assay [2] is given as “G (^ 3 to 9.0)”.

`COC[C@H]1CN(c2cc(Cl)c3c4c(c(=O)oc3c2C)CN(C(=O)c2cc(N(C)C)c(C(=O)NS(=O)(=O)N3C[C@H]5C[C@@H]3CO5)cc2F)CC4)CCN1C` [Example 294, N-(((1R,4R)-2-oxa-5-azabicyclo[2.2.1]heptan-5-yl)sulfonyl)-4-(10-chloro-8-((R)-3-(methoxymethyl)-4-methylpiperazin-1-yl)-7-methyl-5-oxo-1,3,4,5-tetrahydro-2H-chromeno[3,4-c]pyridine-3-carbonyl)-2-(dimethylamino)-5-fluorobenzamide]: the IC50 in assay [1] was in the range of 100 to 1000 nM; in assay [2] it was 10 to 100 nM; in the assay with human CD4+ T cells, 10 to 30 nM. Moreover, the “MTHFD1/MTHFD2 IC50 ratio” value in assay [2] is recorded as “J (>30)”.

Regarding `COC[C@H]1CN(c2cc(C)c3c4c(c(=O)oc3c2C)CN(C(=O)c2ccc(C(=O)NS(=O)(=O)N3C5CCC3CC5)c(C)c2F)CC4)CCN1C` [Example 241], the IC50 in assay [1] was in the range of 100 to 1000 nM; in assay [2] it was 10 to 100 nM; with human CD4+ T cells, 100 to 1000 nM. For the same compound, in assay [2], the “MTHFD1/MTHFD2 IC50 ratio” value is “H (>9.0 to 30)”.

For `COC[C@H]1CN(c2cc(C)c3c4c(c(=O)oc3c2C)CN(C(=O)c2ccc(C(=O)NS(=O)(=O)N3CCCC3)c(N3CCCC3)c2F)CC4)CCN1C` [Example 98, (R)-3-fluoro-4-(8-(3-(methoxymethyl)-4-methylpiperazin-1-yl)-7,10-dimethyl-5-oxo-1,3,4,5-tetrahydro-2H-chromeno[3,4-c]pyridine-3-carbonyl)-2-(pyrrolidin-1-yl)-N-(pyrrolidin-1-ylsulfonyl)benzamide], the IC50 in assay [1] was 10 to 100 nM; in assay [2] it was 1 to 10 nM; with human CD4+ T cells, 10 to 30 nM. For the same compound, the “MTHFD1/MTHFD2 IC50 ratio” value in assay [2] was “F (<3)”.

On to `COC[C@H]1CN(c2cc(Cl)c3c4c(c(=O)oc3c2C)CN(C(=O)c2cc(N(C)C)c(C(=O)NS(=O)(=O)N3CC5(CCC5)C3)cc2F)CC4)CCN1C` [Example 318, (R)-N-((2-azaspiro[3.3]heptan-2-yl)sulfonyl)-4-(10-chloro-8-(3-(methoxymethyl)-4-methylpiperazin-1-yl)-7-methyl-5-oxo-1,3,4,5-tetrahydro-2H-chromeno[3,4-c]pyridine-3-carbonyl)-2-(dimethylamino)-5-fluorobenzamide], for which the IC50 was in the range of 100 to 1000 nM in assay [1], 1 to 10 nM in assay [2] and 10 to 30 nM with human CD4+ T cells. For the same compound, the “MTHFD1/MTHFD2 IC50 ratio” value in assay [2] is reported as “J (>30)”.

`COC[C@H]1CN(c2cc(C)c3c4c(c(=O)oc3c2C)CN(C(=O)c2cc(N(C)C)c(C(=O)NS(=O)(=O)N3C5CCC3CC5)cc2F)CC4)CCN1C` [Example 255, (R)-N-((7-azabicyclo[2.2.1]heptan-7-yl)sulfonyl)-2-(dimethylamino)-5-fluoro-4-(8-(3-(methoxymethyl)-4-methylpiperazin-1-yl)-7,10-dimethyl-5-oxo-1,3,4,5-tetrahydro-2H-chromeno[3,4-c]pyridine-3-carbonyl)benzamide]: the IC50 is 1000 to 5000 nM in assay [1], 1 to 10 nM in assay [2] and 10 to 30 nM with human CD4+ T cells. The “MTHFD1/MTHFD2 IC50 ratio” value in assay [2] is reported as “J (>30)”.

Turning to `COC[C@H]1CN(c2cc(C)c3c4c(c(=O)oc3c2C)CN(C(=O)c2cc(OC)c(C(=O)NS(=O)(=O)N3CC5CC5C3)cc2F)CC4)CCN1C` (stereo partly drawn) [Example 249, N-((3-azabicyclo[3.1.0]hexan-3-yl)sulfonyl)-5-fluoro-2-methoxy-4-(8-((R)-3-(methoxymethyl)-4-methylpiperazin-1-yl)-7,10-dimethyl-5-oxo-1,3,4,5-tetrahydro-2H-chromeno[3,4-c]pyridine-3-carbonyl)benzamide], the values for the IC50 (in assay [1]; in assay [2]; with human CD4+ T cells) were 100 to 1000 nM, 1 to 10 nM and 30 to 100 nM, respectively. The “MTHFD1/MTHFD2 IC50 ratio” value in assay [2] was “J (>30)”.

Consider `[2H]C([2H])([2H])Oc1cc(C(=O)N2CCc3c(c(=O)oc4c(C)c(N5CCN(C)[C@@H](COC)C5)cc(Cl)c34)C2)c(F)cc1C(=O)NS(=O)(=O)N1C2CCC1CC2` [Example 326, (R)-N-((7-azabicyclo[2.2.1]heptan-7-yl)sulfonyl)-4-(10-chloro-8-(3-(methoxymethyl)-4-methylpiperazin-1-yl)-7-methyl-5-oxo-1,3,4,5-tetrahydro-2H-chromeno[3,4-c]pyridine-3-carbonyl)-5-fluoro-2-(methoxy-d3)benzamide], for which the IC50 in assay [1] lay within 1000 to 5000 nM; in assay [2], 1 to 10 nM; in the assay on human CD4+ T cells, 100 to 1000 nM. Moreover, the “MTHFD1/MTHFD2 IC50 ratio” value in assay [2] was “J (>30)”.

`COC[C@H]1CN(c2cc(Cl)c3c4c(c(=O)oc3c2C)CN(C(=O)c2cc(N(C)C)c(C(=O)NS(=O)(=O)N3CC[C@H](F)C3)cc2F)CC4)CCN1C` [Example 302, 4-(10-chloro-8-((R)-3-(methoxymethyl)-4-methylpiperazin-1-yl)-7-methyl-5-oxo-1,3,4,5-tetrahydro-2H-chromeno[3,4-c]pyridine-3-carbonyl)-2-(dimethylamino)-5-fluoro-N-(((S)-3-fluoropyrrolidin-1-yl)sulfonyl)benzamide]: the values for the IC50 (in assay [1]; in assay [2]; in the assay with human CD4+ T cells) were 100 to 1000 nM, 10 to 100 nM and 10 to 30 nM, respectively. Moreover, the “MTHFD1/MTHFD2 IC50 ratio” value in assay [2] was “J (>30)”.

Regarding `CCOc1c(C(=O)N2CCc3c(c(=O)oc4c(C)c(N5CCN(C)[C@@H](COC)C5)cc(C)c34)C2)ccc(C(=O)NS(=O)(=O)N2CCCC2)c1F` [Example 223, (R)-3-ethoxy-2-fluoro-4-(8-(3-(methoxymethyl)-4-methylpiperazin-1-yl)-7,10-dimethyl-5-oxo-1,3,4,5-tetrahydro-2H-chromeno[3,4-c]pyridine-3-carbonyl)-N-(pyrrolidin-1-ylsulfonyl)benzamide], the IC50 (in assay [1]; in assay [2]; in the assay with human CD4+ T cells) was 1 to 10 nM each time. Also, the “MTHFD1/MTHFD2 IC50 ratio” value in assay [2] was “F (<3)”.

For `CCOc1cc(C(=O)N2CCc3c(c(=O)oc4c(C)c(N5CCN(C)[C@@H](COC)C5)cc(C)c34)C2)c(F)cc1C(=O)NS(=O)(=O)N1CCC(C)(C)C1` [Example 217, (R)-N-((3,3-dimethylpyrrolidin-1-yl)sulfonyl)-2-ethoxy-5-fluoro-4-(8-(3-(methoxymethyl)-4-methylpiperazin-1-yl)-7,10-dimethyl-5-oxo-1,3,4,5-tetrahydro-2H-chromeno[3,4-c]pyridine-3-carbonyl)benzamide], the IC50 in assay [1] was 100 to 1000 nM; in assay [2], 10 to 100 nM; in the assay with human CD4+ T cells, 10 to 30 nM. The “MTHFD1/MTHFD2 IC50 ratio” value in assay [2] is reported as “G (^ 3 to 9.0)”.

On to `COC[C@H]1CN(c2cc(Cl)c3c4c(c(=O)oc3c2C)CN(C(=O)c2cc(N(C)C)c(C(=O)NS(=O)(=O)N(C)C)cc2F)CC4)CCN1C` [Example 260, (R)-4-(10-chloro-8-(3-(methoxymethyl)-4-methylpiperazin-1-yl)-7-methyl-5-oxo-1,3,4,5-tetrahydro-2H-chromeno[3,4-c]pyridine-3-carbonyl)-2-(dimethylamino)-N-(N,N-dimethylsulfamoyl)-5-fluorobenzamide], for which the values for the IC50 (in assay [1]; in assay [2]; in the assay on human CD4+ T cells) were 100 to 1000 nM, 1 to 10 nM and 10 to 30 nM, respectively. In addition, the “MTHFD1/MTHFD2 IC50 ratio” value in assay [2] was “J (>30)”.

As for `COC[C@H]1CN(c2cc(C)c3c4c(c(=O)oc3c2C)CN(C(=O)c2ccc(C(=O)NS(=O)(=O)N3CCCC3)c(F)c2)CC4)CCN1C` [Example 265, (R)-2-fluoro-4-(8-(3-(methoxymethyl)-4-methylpiperazin-1-yl)-7,10-dimethyl-5-oxo-1,3,4,5-tetrahydro-2H-chromeno[3,4-c]pyridine-3-carbonyl)-N-(pyrrolidin-1-ylsulfonyl)benzamide], the IC50 in assay [1] lay within 100 to 1000 nM; in assay [2], 1 to 10 nM; with human CD4+ T cells, 100 to 1000 nM. Besides, in assay [2], the “MTHFD1/MTHFD2 IC50 ratio” value was “J (>30)”.

Turning to `COC[C@H]1CN(c2cc(C)c3c4c(c(=O)oc3c2C)CN(C(=O)c2cc(N(C)C)c(C(=O)NS(=O)(=O)N(C3CC3)C3CC3)cc2F)CC4)CCN1C` [Example 276, (R)-N-(N,N-dicyclopropylsulfamoyl)-2-(dimethylamino)-5-fluoro-4-(8-(3-(methoxymethyl)-4-methylpiperazin-1-yl)-7,10-dimethyl-5-oxo-1,3,4,5-tetrahydro-2H-chromeno[3,4-c]pyridine-3-carbonyl)benzamide], the IC50 in assay [1] was 100 to 1000 nM; in assay [2], 10 to 100 nM; in the assay with human CD4+ T cells, 1 to 10 nM. Moreover, in assay [2], the “MTHFD1/MTHFD2 IC50 ratio” value is reported as “H (>9.0 to 30)”.
